Values quoted from earlier work, collected in patent US7737327B2, “Methods for screening for genes and small molecules that activate mammalian receptor proteins” (The University of Kentucky Research Foundation, priority 2004, dated 2010).

What was measured:
[1] = mice on a high-cholesterol diet
[2] = test system: mouse mammary tumor virus promoter; details: only when low level of inducer (200 nm dexamethasone) present simultaneously

Compound	effect on hepatic cholesterol [1]	effect on activity of mouse mammary tumor virus promoter [2]
C/C=C1\C(=O)C[C@H]2[C@@H]3CCC4=CC(=O)CC[C@]4(C)[C@H]3CC[C@]12C [guggelsterone]	decrease hepatic cholesterol	
(−)-epigallocatechin-3-O-gallate		enhance the activity
